From ChEMBL document CHEMBL5316329, “Structure-Based Optimization of 2,4,5-Trisubstituted Pyrimidines as Potent HIV-1 Non-Nucleoside Reverse Transcriptase Inhibitors: Exploiting the Tolerant Regions of the Non-Nucleoside Reverse Transcriptase Inhibitors' Binding Pocket” (J Med Chem, 2023)
pEC50, pIC50: −log10 of the molar value.

Experiments:
[1] = test system: Human immunodeficiency virus 1; assay: Antiviral activity against NNRTI-resistant HIV-1 RES056 infected in human MT4 cells assessed as virus-induced cytopathicity treated for 5 days by MTT assay; type: functional, organism-based; settings: Human immunodeficiency virus 1, RES056, MT4, 120 h
[2] = Cytotoxicity against human MT4 cells assessed as reduction in cell viability treated for 5 days by MTT assay; type: toxicity, cell-based; settings: time 5 day
[3] = test system: Human immunodeficiency virus 1; assay: Antiviral activity against HIV-1 harboring L100I mutant infected in human MT4 cells assessed as virus-induced cytopathicity treated for 5 days by MTT assay; type: functional, organism-based; settings: Human immunodeficiency virus 1, MT4, 120 h
[4] = test system: Human immunodeficiency virus 1; assay: Antiviral activity against HIV-1 harboring Y181C mutant infected in human MT4 cells assessed as virus-induced cytopathicity treated for 5 days by MTT assay; type: functional, organism-based; settings: Human immunodeficiency virus 1, MT4, 120 h
[5] = test system: Human immunodeficiency virus 1; assay: Antiviral activity against wild-type HIV-1 IIIB infected in human MT4 cells assessed as virus-induced cytopathicity treated for 5 days by MTT assay; type: functional, organism-based; settings: Human immunodeficiency virus 1, IIIB, MT4, 120 h
[6] = Selectivity index, ratio of CC50 for human MT4 cells to EC50 for wild-type HIV-1 IIIB infected in human MT4 cells; type: toxicity, cell-based; settings: read-out: Selectivity Index
[7] = Selectivity index, ratio of CC50 for human MT4 cells to EC50 for NNRTI-resistant HIV-1 RES056 infected in human MT4 cells; type: toxicity, cell-based; settings: read-out: Selectivity Index
[8] = biological target: Human immunodeficiency virus type 1 reverse transcriptase (Human immunodeficiency virus 1, UniProt Q72547); assay: Inhibition of wild-type HIV-1 reverse transcriptase assessed as inhibition of biotin-dUTP incorporation

Compound	pEC50 [1]	CC50 at 120 h [2] [µM]	pEC50 ([3]; read-out: EC50)	EC50 ([3]; read-out: pEC50 (converted)) [nM]	pEC50 ([4]; read-out: EC50)	EC50 ([4]; read-out: pEC50 (converted)) [nM]	pEC50 [5]	selectivity ratio [6]	selectivity ratio [7]	pIC50 [8]
Cc1cc(C#N)cc(C)c1Oc1nc(Nc2ccc(C#N)cc2)nc(N)c1Br [ETRAVIRINE]	7.28	> 4.59	7.93	11.7	7.78	17	–	–	–	–
Cc1cc(/C=C/C#N)cc(C)c1Oc1nc(NC2CCN(Cc3ccc(C(N)=O)cc3)CC2)ncc1-c1ccccc1O	6.91	11.2	–	–	–	–	8.22	1870	91	6.75
Cc1cc(/C=C/C#N)cc(C)c1Oc1nc(NC2CCN(Cc3ccc(S(N)(=O)=O)cc3)CC2)ncc1-c1ccccc1F	7.00	10.9	–	–	–	–	8.40	2760	107	6.89
Cc1cc(/C=C/C#N)cc(C)c1Oc1nc(NC2CCN(Cc3ccc(S(C)(=O)=O)cc3)CC2)ncc1-c1ccccc1N	6.96	5.11	–	–	–	–	8.23	868	47	6.75
Cc1cc(/C=C/C#N)cc(C)c1Oc1nc(NC2CCN(Cc3ccc(C(N)=O)cc3)CC2)ncc1-c1cccc(F)c1	6.95	11.3	–	–	–	–	8.21	1850	100	6.79
Cc1cc(/C=C/C#N)cc(C)c1Oc1nc(NC2CCN(Cc3ccc(S(C)(=O)=O)cc3)CC2)ncc1-c1ccc(O)cc1	7.29	5.41	–	–	–	–	8.25	956	106	7.01
Cc1cc(/C=C/C#N)cc(C)c1Oc1nc(NC2CCN(Cc3ccc(S(N)(=O)=O)cc3)CC2)ncc1-c1ccccc1N	7.04	5.49	–	–	–	–	8.24	953	60	6.80
Cc1cc(/C=C/C#N)cc(C)c1Oc1nc(NC2CCN(Cc3ccc(C(N)=O)cc3)CC2)ncc1-c1ccccc1F	6.72	10.5	–	–	–	–	8.13	1420	55	6.81
Cc1cc(/C=C/C#N)cc(C)c1Oc1nc(NC2CCN(Cc3ccc(S(N)(=O)=O)cc3)CC2)ncc1-c1ccccc1O	6.76	12.5	–	–	–	–	8.04	1370	72	6.69
Cc1cc(/C=C/C#N)cc(C)c1Oc1nc(NC2CCN(Cc3ccc(C(N)=O)cc3)CC2)ncc1-c1ccccc1N	7.31	11.7	–	–	–	–	8.36	2680	239	6.91
Cc1cc(/C=C/C#N)cc(C)c1Oc1nc(NC2CCN(Cc3ccc(S(C)(=O)=O)cc3)CC2)ncc1-c1cccc(F)c1	6.91	6.65	–	–	–	–	8.14	916	54	6.64
Cc1cc(/C=C/C#N)cc(C)c1Oc1nc(NC2CCN(Cc3ccc(S(N)(=O)=O)cc3)CC2)ncc1-c1cccc(F)c1	6.88	14.2	–	–	–	–	8.02	1490	108	6.71
Cc1cc(/C=C/C#N)cc(C)c1Cc1nc(NC2CCN(Cc3ccc(S(N)(=O)=O)cc3)CC2)ncc1-c1cnc(N)nc1	7.49	2.74	–	–	–	–	8.35	617	85	7.07
Cc1cc(/C=C/C#N)cc(C)c1Cc1nc(NC2CCN(Cc3ccc(C(N)=O)cc3)CC2)ncc1-c1cnc(N)nc1	7.16	3.07	–	–	–	–	8.17	451	45	6.80
Cc1cc(/C=C/C#N)cc(C)c1Oc1nc(NC2CCN(Cc3ccc(S(C)(=O)=O)cc3)CC2)ncc1-c1ccc2c(c1)OCO2	7.23	4.29	–	–	–	–	8.26	776	73	6.79
Cc1cc(/C=C/C#N)cc(C)c1Oc1nc(NC2CCN(Cc3ccc(S(C)(=O)=O)cc3)CC2)ncc1-c1ccccc1O	6.42	6.73	–	–	–	–	8.04	745	18	6.48
CC(=O)c1ccc(-c2cnc(NC3CCN(Cc4ccc(C(N)=O)cc4)CC3)nc2Oc2c(C)cc(/C=C/C#N)cc2C)cc1	7.26	11.1	–	–	–	–	8.29	2160	201	6.76
Cc1cc(/C=C/C#N)cc(C)c1Oc1nc(NC2CCN(Cc3ccc(S(C)(=O)=O)cc3)CC2)ncc1-c1ccc(F)cc1	7.00	4.34	–	–	–	–	8.29	853	43	6.84
Cc1cc(/C=C/C#N)cc(C)c1Oc1nc(NC2CCN(Cc3ccc(S(N)(=O)=O)cc3)CC2)ncc1-c1ccc(F)cc1	7.17	9.63	–	–	–	–	8.30	1930	142	6.86
Cc1cc(/C=C/C#N)cc(C)c1Oc1nc(NC2CCN(Cc3ccc(C(N)=O)cc3)CC2)ncc1-c1ccc(F)cc1	7.27	8.23	–	–	–	–	8.29	1600	154	6.89
Cc1cc(/C=C/C#N)cc(C)c1Cc1nc(NC2CCN(Cc3ccc(S(C)(=O)=O)cc3)CC2)ncc1-c1cnc(N)nc1	7.53	1.73	–	–	–	–	8.38	416	58	6.97
Cc1cc(/C=C/C#N)cc(C)c1Oc1nc(NC2CCN(Cc3ccc(S(C)(=O)=O)cc3)CC2)ncc1-c1cccc(O)c1	7.17	4.35	–	–	–	–	8.24	756	64	6.79
Cc1cc(/C=C/C#N)cc(C)c1Oc1nc(NC2CCN(Cc3ccc(S(C)(=O)=O)cc3)CC2)ncc1-c1cccc(N)c1	7.28	4.12	–	–	–	–	8.22	682	78	6.87
Cc1cc(/C=C/C#N)cc(C)c1Oc1nc(NC2CCN(Cc3ccc(C(N)=O)cc3)CC2)ncc1-c1ccc(O)cc1	6.82	21.3	–	–	–	–	8.25	3760	142	6.77
Cc1cc(/C=C/C#N)cc(C)c1Oc1nc(NC2CCN(Cc3ccc(S(C)(=O)=O)cc3)CC2)ncc1-c1ccccc1F	6.74	11.6	–	–	–	–	8.17	1710	63	6.79
CC(=O)c1ccc(-c2cnc(NC3CCN(Cc4ccc(S(C)(=O)=O)cc4)CC3)nc2Oc2c(C)cc(/C=C/C#N)cc2C)cc1	7.03	8.46	–	–	–	–	8.26	1540	91	6.70
